Values quoted from earlier work as cited in patent US9433602B2, “Combination and composition for treating obesity” (LABORATORIOS SENOSIAIN S.A. DE C.V., priority 2010, dated 2016).
Where “and” joins values, the source holds several entries; their conditions need not be identical. Equal entries are not always repeated.

Legend:
[1] = humans, taken orally
[2] = test system: gastric and pancreatic lipases; details: pharmacological effect of the drug
[3] = not given; remark: listed apart in the source

Row | Bioavailability [1] | Half-life [1] | Solubility in chloroform (chloroform) | Solubility in water | Plasma concentrations of intact orlistat ([3]; after single administration of 360 mg, normal weight and obese subjects) | Plasma concentrations in general ([3]; in general, no evidence of accumulation) | Share of the fecally excreted dose that was unchanged orlistat ([3]; of the dose excreted in feces) | Administered dose excreted in feces ([3]; people with normal weight or obese) | Solubility in alcohol and methanol (alcohol and methanol) | Solubility in hydrochloric acid 10% (hydrochloric acid 10%) | Compound | Decrease of the absorption of ingested fat [2]
1 | relatively low | approximately 8 h | – | – | – | – | – | – | – | – | Oc1ccc(/C=C/c2cc(O)cc(O)c2)cc1 [trans-resveratrol] | –
2 | – | – | easily soluble in chloroform | insoluble in water | < 5 ng/mL | < 10 ng/ml and < 0.02 μM | 83% | Approximately 97% | – | – | CCCCCCCCCCC[C@@H](C[C@@H]1OC(=O)[C@H]1CCCCCC)OC(=O)[C@H](CC(C)C)NC=O [orlistat] | 30%
3 | – | – | – | insoluble in water | – | – | – | – | soluble in alcohol and methanol | insoluble in hydrochloric acid 10% | Oc1ccc(C=Cc2cc(O)cc(O)c2)cc1 [Resveratrol, 3,5,4′-trihydroxystilbene] | –
